Results on 4 molecules are retold here after patent US20140086961A1, “USE OF CYCLODEXTRINS IN DIETS, WATER OR VACCINE ADJUVANTS TO BOOST THE IMMUNE SYSTEM OF FISH” (priority 2011, published 2014).

Each structure is given as a SMILES string.

Data set [1] deals with zebrafish larvae. The experiment in a line: LPS challenge of zebrafish larvae bathed with cyclodextrin. Conditions: zebrafish larvae 2 dpf, bath 67.5-500 μg/mL, then LPS 150 μg/mL Pseudomonas aeruginosa, mortality over 36 hours. It is filed as in vivo. The protocol:
FIGS. 5A and 5B show replicates of the effects of α-cyclodextrin at various concentrations on LPS challenge. Zebrafish larvae, 2 days post-fertilization, were bathed with 0, 67.5, 125, 250 or 500 μg/mL of alpha cyclodextrin. Zebrafish larvae were then bathed with a lethal concentration (100% mortality) of LPS (150 μg/mL—Pseudomonas aeruginosa) and assessed for mortality over 36 hours. FIGS. 5A and 5B show the cumulative mortality after challenge of zebrafish larvae treated with α-cyclodextrin
FIGS. 6A and 6B show replicates of the effects of β-cyclodextrin at various concentrations on LPS challenge performed in replicate. Zebrafish larvae, 2 days post-fertilization, were bathed with 0, 67.5, 125, 250 or 500 μg/mL of beta cyclodextrin. Zebrafish larvae were then bathed with a lethal concentration (100% mortality) of LPS (150 μg/mL—Pseudomonas aeruginosa) and assessed for mortality over 36 hours. FIGS. 6A and 6B show the cumulative mortality after challenge of zebrafish larvae treated with β-cyclodextrin
To test this, zebrafish larvae, 2 days post fertilization (dpf), were bathed with 0, 67.5, 125, 250 or 500 μg/mL of beta or alpha cyclodextrin. Zebrafish larvae were then bathed with a lethal concentration (i.e., 100% mortality) of bacterial lipopolysaccharide (LPS) (150 μg/mL Pseudomonas aeurginosa). […]

Data set [2] has as its system zebrafish larvae. The experiment in a line: Larval viability during cyclodextrin treatment after first feeding. Type of data set: in vivo. The note with it: zebrafish larvae bathed with 500 μg/mL, recorded 10 days post first feeding. The method, then:
The larval viability during cyclodextrin treatment was explored. The survival during treatment was compared with normal larval growth condition after first feeding (day 5 post hatch). 6 independent batches by reproduction (84 embryos by batch) of zebrafish larvae were bathed with 0 (“Control”; normal larval growth condition) or 500 μg/mL of beta cyclodextrin (“β CyD”), alpha cyclodextrin (“α CyD”) or both (“β+α CyD”; 50/50% of each). Larval survival was recorded 10 days post first feeding ([…]) and was increased with all cyclodextrin treatments (FIG. 7).

Data set [3] has as its system IL-1B and IL-6 gene expression in rainbow trout macrophages. In words: RT-PCR of IL-1B and IL-6 in trout macrophages with different cyclodextrins (FIG. 4). Type of data set: cell-based. Conditions: trout macrophages stimulated 30 minutes to 24 hours. The protocol:
Trout macrophages were stimulated for 30 minutes to 24 hours with heptakis (2,6-di-O-methyl)-β-cyclodextrin (Heptakis); methyl-β-cyclodextrin (Methyl β); beta cyclodextrin (β CyD); 2-hydroxypropyl-β-cyclodextrin (Hydroxy β); 2-hydroxypropyl-α-cyclodextrin (Hydroxy α); gamma cyclodextrin (γ CyD). RNA was extracted and RT-PCR conducted with IL-1B and IL-6. 18s was a RNA loading control. Molecular weight standard in first lane
Since there are various forms of cyclodextrins with different side groups that appear to have different effects in mammalian macrophages, the effects of different cyclodextrins on gene expression in the trout macrophage cell cultures were tested. Trout macrophages were stimulated for 30 minutes to 24 hours with heptakis (2,6-di-O-methyl)-β-cyclodextrin (Heptakis); methyl-β-cyclodextrin (Methyl β); beta cyclodextrin (β CyD); 2-hydroxypropyl-β-cyclodextrin (Hydroxy β; 2-hydroxypropyl-α-cyclodextrin (Hydroxy α); gamma cyclodextrin (γ CyD). RNA was extracted and RT-PCR conducted with IL-1B and IL-6.
From these cell experiments, it was shown that cyclodextrin could up-regulate the innate immune system and could possibly be used as an immune agent to protect fish against pathogen challenges.

In data set [4] the test system is IL-1B gene expression in trout macrophages. In words: IL-1B gene expression in primary trout macrophage culture (QPCR). It is filed as cell-based, rainbow trout. The note with it: trout macrophages stimulated 24 hours, LPS positive control. The protocol: LPS is a positive stimulatory control. Macrophages were isolated from head kidneys of rainbow trout, plated and then stimulated with the preparations for 24 hours. RNA was extracted from cells and analyzed by QPCR for IL-1B expression. Data are means for 3 independent trials.
Standard SYBR-green based methodology was used for anti-viral and pro-inflammatory gene expression in mucosal immune system (intestine/gills/skin/spleen) to evaluate effective dose and identify the effects of β-cyclodextrins on tissue activation profiles. Briefly, 2 μg of total RNA was used for cDNA synthesis (SuperScript® III, Invitrogen) and subsequently diluted with nuclease-free water to 1 ng/μL cDNA. Gene-specific high-melting temperature primers for genes of interest were designed using NCBI/Primer-BLAST suite. […] Quantitative expression data between different times were examined by one-way ANOVA using SPSS 17 statistical software and the differences were considered significant at p<0.05.
A primary trout macrophage culture system was used to investigate how pathogens are recognized by the innate immune system in fish (MacKenzie et al., Developmental and Comparative Immunology 27:393-400 (2003); Iliev et al., Molecular Immunology 42:1215-1223 (2005); Iliev et al. FEBS Letters 579 (29):6519-6528 (2005)). […] RNA was extracted from cells and analyzed by QPCR for IL-1B expression. […]

In data set [5] the test system is TNF, Mx, IL-6, IL-1B, TLR, IFN, CD18, PU1 gene expression in trout macrophages. In words: RT-PCR of immune genes in trout macrophages stimulated 24 hours (FIG. 3). It is filed as cell-based, rainbow trout. The method, then:
Cells were stimulated for 24 hours and RNA extracted and RT-PCR conducted with TNF (tissue necrosis factor), Mx protein, IL-6 (interleukin 6), IL-1B (interleukin 1B), TLR (toll-like receptor), IFN (interferon), CD18 (cluster of differentiation 18), and PU1 (transcription factor PU1). 18S is a RNA loading control. Molecular weight standard in first lane.
The effects of cyclodextrin on the expression of several other genes such as TNF and IL-6 that are also pro-inflammatory were studied (FIG. 3). […] Cells were stimulated for 24 hours and RNA extracted and RT-PCR conducted with TNF (tissue necrosis factor), Mx protein, IL-6 (interleukin 6), IL-1B (interleukin 1B), TLR (toll-like receptor), IFN (interferon), CD18 (cluster of differentiation 18), and PU1 (transcription factor PU1). 18S is a RNA loading control. Molecular weight standard is in the first lane.

Another data set deals with trout macrophages. In words: QBlue Cell Viability Assay (resazurin reduction) in trout macrophages. Type of data set: cell-based, rainbow trout. The note with it: same cells as FIG. 1, saponin positive control. The text has this: High fluorescence indicates no loss in cell viability. Cells were the same ones used in FIG. 1. Saponin is a positive control since it kills cells.
A primary trout macrophage culture system was used to investigate how pathogens are recognized by the innate immune system in fish (MacKenzie et al., Developmental and Comparative Immunology 27:393-400 (2003); Iliev et al., Molecular Immunology 42:1215-1223 (2005); Iliev et al. FEBS Letters 579 (29):6519-6528 (2005)). In this system, macrophages can be stimulated by various compounds and the expression of immune genes such as interleukin 1 B (IL-1B) or tissue necrosis factor (TNF) can be assayed as a measure of the degree of inflammatory stimulation and, thus, activation of the innate immune system. The effect of nanoparticles on the immune system of trout as an indication of the possible harmful effects of these compounds on aquatic organisms was studied. This involved exposing the cultured trout macrophages to nanoparticles and looking for effects on IL-1B and interferon alpha (IFNa) gene expression. Bacterial lipopolysaccharide (LPS) was used as a positive stimulatory control. […] RNA was extracted from cells and analyzed by QPCR for IL-1B expression. […] The effect of beta cyclodextrin on any cell viability was determined using the QBlue Cell Viability Assay Kit (BioChain) and saponin as a positive control for cell death.
(The colour change of resazurin is a common sign of viable cells or microbes.)

Turning to `OC[C@H]1O[C@@H]2O[C@H]3[C@H](O)[C@@H](O)[C@@H](O[C@H]4[C@H](O)[C@@H](O)[C@@H](O[C@H]5[C@H](O)[C@@H](O)[C@@H](O[C@H]6[C@H](O)[C@@H](O)[C@@H](O[C@H]7[C@H](O)[C@@H](O)[C@@H](O[C@H]1[C@H](O)[C@H]2O)O[C@@H]7CO)O[C@@H]6CO)O[C@@H]5CO)O[C@@H]4CO)O[C@@H]3CO` [alpha cyclodextrin], in the data set on zebrafish larvae [1], the “protection of larvae against lethal LPS challenge” value is listed as “protected the larvae against the LPS”. The “larval survival versus control” value in the data set on zebrafish larvae [2] is “increased”.

Turning to `COC[C@H]1O[C@@H]2O[C@H]3[C@H](O)[C@@H](OC)[C@@H](O[C@H]4[C@H](O)[C@@H](OC)[C@@H](O[C@H]5[C@H](O)[C@@H](OC)[C@@H](O[C@H]6[C@H](O)[C@@H](OC)[C@@H](O[C@H]7[C@H](O)[C@@H](OC)[C@@H](O[C@H]8[C@H](O)[C@@H](OC)[C@@H](O[C@H]1[C@H](O)[C@H]2OC)O[C@@H]8COC)O[C@@H]7COC)O[C@@H]6COC)O[C@@H]5COC)O[C@@H]4COC)O[C@@H]3COC` [Heptakis, heptakis (2,6-di-O-methyl)-β-cyclodextrin], in data set [3], the IL-1B expression result was “stimulated” and the IL-6 expression entry was “stimulated”.

On to `OC[C@H]1O[C@@H]2O[C@H]3[C@H](O)[C@@H](O)[C@@H](O[C@H]4[C@H](O)[C@@H](O)[C@@H](O[C@H]5[C@H](O)[C@@H](O)[C@@H](O[C@H]6[C@H](O)[C@@H](O)[C@@H](O[C@H]7[C@H](O)[C@@H](O)[C@@H](O[C@H]8[C@H](O)[C@@H](O)[C@@H](O[C@H]1[C@H](O)[C@H]2O)O[C@@H]8CO)O[C@@H]7CO)O[C@@H]6CO)O[C@@H]5CO)O[C@@H]4CO)O[C@@H]3CO` [beta cyclodextrin], for which, in the data set on zebrafish larvae [1], the “protection of larvae against lethal LPS challenge” value is given as “protected the larvae against the LPS”. Also, in data set [4], the IL-1B expression result is recorded as “potent stimulator of inflammatory gene expression”. Further, the “larval survival versus control” value in the data set on zebrafish larvae [2] is “increased”. In data set [5], the “most highly stimulated gene” value was “IL-1B”. Besides, the cell viability result with trout macrophages is “No effect on viability”.

In the case of `OC[C@H]1O[C@@H]2O[C@H]3[C@H](O)[C@@H](O)[C@@H](O[C@H]4[C@H](O)[C@@H](O)[C@@H](O[C@H]5[C@H](O)[C@@H](O)[C@@H](O[C@H]6[C@H](O)[C@@H](O)[C@@H](O[C@H]7[C@H](O)[C@@H](O)[C@@H](O[C@H]8[C@H](O)[C@@H](O)[C@@H](O[C@H]9[C@H](O)[C@@H](O)[C@@H](O[C@H]1[C@H](O)[C@H]2O)O[C@@H]9CO)O[C@@H]8CO)O[C@@H]7CO)O[C@@H]6CO)O[C@@H]5CO)O[C@@H]4CO)O[C@@H]3CO` [gamma cyclodextrin], in data set [3], the IL-1B expression result is given as “most effective form”.
